Structures are written as SMILES.

35 compounds from US8309558B2, “Compounds for the treatment of hepatitis C” (Bristol-Myers Squibb Company, priority 2008, dated 2012) can be followed below.

The first assay concerns HCV replicon cells. The experiment in a line: HCV replicon FRET / luciferase assay (96-well plates). It is filed as cell-based. As to conditions: Hepatitis C virus, 24 h, Table 1d (class symbols); HCV replicon; read-out: EC50. An excerpt: FRET Assay Preparation. To perform the HCV FRET screening assay, 96-well cell culture plates were used. The FRET peptide (Anaspec, Inc.) (Taliani et al., Anal. Biochem. 1996, 240, 60-67) contains a fluorescence donor, EDANS, near one end of the peptide and an acceptor, DABCYL, near the other end. The fluorescence of the peptide is quenched by […] resonance energy transfer (RET) between the donor and the acceptor, but as the NS3 protease cleaves the peptide the products are released from RET quenching and the fluorescence of the donor becomes apparent. The assay reagent was made as follows: 5× cell Luciferase cell culture lysis reagent from Promega (#E153A) diluted to 1× with dH2O, NaCl added to 150 mM final, the FRET peptide diluted to 20 μM final from a 2 mM stock.
To prepare plates, HCV replicon cells, with or without a Renilla luciferase reporter gene, were trypsinized and placed into each well of a 96-well plate with titrated test compounds added in columns 3 through 12; columns 1 and 2 contained a control compound (HCV protease inhibitor), and the bottom row contained cells without compound. The plates were then placed in a CO2 incubator at 37° C.
Assays. Subsequent to addition of the test compounds described above (FRET Assay Preparation), at various times the plate was removed and Alamar blue solution (Trek Diagnostics, #00-100) was added per well as a measure of cellular toxicity. After reading in a Cytoflour 4000 instrument (PE Biosystems), plates were rinsed with PBS and then used for FRET assay by the addition of 30 ul of the FRET peptide assay reagent described above (FRET Assay Preparation) per well. The plate was then placed into the Cytoflour 4000 instrument which had been set to 340 excite/490 emission, automatic mode for 20 cycles and the plate read in a kinetic mode. Typically, the signal to noise using an endpoint analysis after the reads was at least three-fold. Alternatively, after Alamar blue reading, plates were rinsed with PBS, 50 ul of DMEM (high glucose) without phenol red was added and plates were then used for luciferase assay using the Promega Dual-Glo Luciferase Assay System.
Compound analysis was determined by quantification of the relative HCV replicon inhibition and the relative cytotoxicity values. To calculate cytoxicity values, the average Alamar Blue fluorescence signals from the control wells were set as 100% non-toxic. The individual signals in each of the compound test wells were then divided by the average control signal and multiplied by 100% to determine […]. To calculate the HCV replicon inhibition values, an average background value was obtained from the two wells containing the highest amount of HCV protease inhibitor at the end of the assay period. These numbers were similar to those obtained from naïve Huh-7 cells.
The background numbers were then subtracted from the average signal obtained from the control wells and this number was used as 100% activity. The individual signals in each of the compound test wells were then divided by the averaged control values after background subtraction and multiplied by 100% to determine percent activity. EC50 values for a protease inhibitor titration were calculated as the concentration which caused a 50% reduction in FRET or luciferase activity. The two numbers generated for the compound plate, percent cytoxicity and percent activity were used to determine compounds of interest for further analysis.
Broadly, the EC50 is the concentration at which the effect is half-maximal. Take `CNC(=O)c1c(-c2ccc(F)cc2)oc2ccc(-c3cc(C(=O)NC4(c5ncoc5C)CC4)c(OC)cc3C)cc12` [drawing 637]: the concentration giving a half-maximal response (EC50) was 0.001 to 0.25 µM.

`CNC(=O)c1c(-c2ccc(F)cc2)oc2ccc(-c3cc(C(=O)NC4(c5ccccn5)CC4)c(OCC(=O)OC)cc3C)cc12` [drawing 642]: the EC50 was in the range of 0.25 to 1 µM.

Regarding `CNC(=O)c1c(-c2ccc(F)cc2)oc2ccc(-c3cc(C(=O)NC4(c5ccncn5)CC4)ccc3C)cc12` [drawing 684], the EC50 lay within 0.001 to 0.25 µM.

As to `CNC(=O)c1c(-c2ccc(F)cc2)oc2ccc(-c3cc(C(=O)NC4(c5ncc(F)cn5)CC4)c(OC)cc3C)c(F)c12` [drawing 689], the EC50 lay in the range of 0.001 to 0.25 µM.

Take `CNC(=O)c1c(-c2ccc(F)cc2)oc2ccc(-c3cc(C(=O)NC4(c5ccnnc5)CC4)c(OC)cc3C)c(F)c12` [drawing 701]: the EC50 fell in the range of 0.001 to 0.25 µM.

The same assay, now with this note: Hepatitis C virus, 24 h, second table titled Table 1d (numbers); HCV replicon; read-out: EC50.
With `CNC(=O)c1c(-c2ccc(F)cc2)oc2ccc(-c3cc(C(=O)NC4(c5ncoc5C)CC4)c(OC)cc3C)cc12` [drawing 709], the EC50 was 0.002 µM.

Take `CNC(=O)c1c(-c2ccc(F)cc2)oc2ccc(-c3cc(C(=O)NC4(c5ccccn5)CC4)c(OCC(=O)OC)cc3C)cc12` [drawing 710]: the EC50 was found to be 0.21 µM.

Regarding `CNC(=O)c1c(-c2ccc(F)cc2)oc2ccc(-c3cc(C(=O)NC4(c5ccncn5)CC4)ccc3C)cc12` [drawing 713], the EC50 is 0.002 µM.

`CNC(=O)c1c(-c2ccc(F)cc2)oc2ccc(-c3cc(C(=O)NC4(c5ncc(F)cn5)CC4)c(OC)cc3C)c(F)c12` [drawing 714]: the EC50 was found to be 0.01 µM.

For the compound `CNC(=O)c1c(-c2ccc(F)cc2)oc2ccc(-c3cc(C(=O)NC4(c5ccnnc5)CC4)c(OC)cc3C)c(F)c12` [drawing 715], the EC50 was determined as 0.056 µM.

Still in this assay, the particulars now being: Hepatitis C virus, Table 1b; HCV replicon; read-out: EC50.
For the compound `CCCn1cc(-c2ccc(-c3ccc4oc(-c5ccc(F)cc5)c(C(=O)NC)c4c3)cc2C(=O)NCC(C)C)cn1`, the EC50 was below 0.25 µM.

For the compound `CNC(=O)c1c(-c2ccc(F)cc2)oc2ccc(-c3ccc(-c4ccccc4CO)c(C(=O)NCC(C)C)c3)cc12`, the EC50 is below 0.25 µM.

For `CNC(=O)c1c(-c2ccc(F)cc2)oc2ccc(-c3ccc(-c4ccoc4)c(C(=O)NCC(C)C)c3)cc12`, the EC50 is below 0.25 µM.

As for `CNC(=O)c1c(-c2ccc(F)cc2)oc2ccc(-c3cc(C(=O)NC4(c5nnc(-c6ccccc6OC)[nH]5)CC4)ccc3C)cc12`, the EC50 was below 0.25 µM.

Regarding `CCCc1nnc(C2(NC(=O)c3ccc(C)c(-c4ccc5oc(-c6ccc(F)cc6)c(C(=O)NC)c5c4)c3)CC2)[nH]1`, the EC50 is below 0.25 µM.

With `CNC(=O)c1c(-c2ccc(F)cc2)oc2ccc(-c3ccc(-c4ccccc4Cl)c(C(=O)NC4(c5ccccn5)CC4)c3)cc12`, the EC50 was below 0.25 µM.

On to `CNC(=O)c1c(-c2ccc(F)cc2)oc2ccc(-c3cc(C(=O)NC4(c5cncnc5)CC4)ccc3C)cc12`, for which the EC50 is below 0.25 µM.

Take `CNC(=O)c1c(-c2ccc(F)cc2)oc2ccc(-c3cc(C(=O)OC)c(OC)cc3OCC(N)=O)cc12`: the EC50 fell in the range of 1 to 10 µM.

On to `CCNC(=O)c1cc(-c2ccc3oc(-c4ccc(F)cc4)c(C(=O)NC)c3c2F)c(C)cc1OC`, for which the half-maximal effective concentration (EC50) was below 0.25 µM.

Turning to `CNC(=O)c1c(-c2ccc(F)cc2)oc2ccc(-c3cc(C(=O)NC4(c5cc(C)on5)CC4)ccc3C)cc12`, the 50% effective concentration (EC50) is below 0.25 µM.

As to `CNC(=O)c1c(-c2ccc(F)cc2)oc2ccc(-c3cc(C(=O)NC4(c5cn(C)cn5)CC4)c(OC)cc3C)cc12`, the EC50 was below 0.25 µM.

As to `CNC(=O)c1c(-c2ccc(F)cc2)oc2ccc(-c3cc(C(=O)NC4(c5ncc(C)s5)CC4)c(OC)cc3C)cc12`, the half-maximal effective concentration (EC50) is below 0.25 µM.

In the case of `CNC(=O)c1c(-c2ccc(F)cc2)oc2ccc(-c3cc(C(=O)NC4(c5nc(C)no5)CC4)ccc3C)cc12` [drawing 478], the EC50 is below 0.25 µM.

Still in this assay, the particulars now being: Table 1b; HCV replicon; read-out: EC50.
`CNC(=O)c1c(-c2ccc(F)cc2)oc2ccc(-c3cc(C(=O)NCC(C)C)ccc3OCCC3CNCCO3)cc12` (centres unmarked) [drawing 567]: the EC50 was below 0.25 µM.

For a further assay, the target named is T1, HCV NS5B RdRp genotype 1b (Hepatitis C virus genotype 1b, UniProt Q9WMX2).
T1 construct: The protein was expressed with an 18 amino acid C-terminal truncation to enhance the solubility; made in house; host or cells: E. coli BL21(DE3), pET21a vector
T1 sequence (Q9WMX2 2420-2992): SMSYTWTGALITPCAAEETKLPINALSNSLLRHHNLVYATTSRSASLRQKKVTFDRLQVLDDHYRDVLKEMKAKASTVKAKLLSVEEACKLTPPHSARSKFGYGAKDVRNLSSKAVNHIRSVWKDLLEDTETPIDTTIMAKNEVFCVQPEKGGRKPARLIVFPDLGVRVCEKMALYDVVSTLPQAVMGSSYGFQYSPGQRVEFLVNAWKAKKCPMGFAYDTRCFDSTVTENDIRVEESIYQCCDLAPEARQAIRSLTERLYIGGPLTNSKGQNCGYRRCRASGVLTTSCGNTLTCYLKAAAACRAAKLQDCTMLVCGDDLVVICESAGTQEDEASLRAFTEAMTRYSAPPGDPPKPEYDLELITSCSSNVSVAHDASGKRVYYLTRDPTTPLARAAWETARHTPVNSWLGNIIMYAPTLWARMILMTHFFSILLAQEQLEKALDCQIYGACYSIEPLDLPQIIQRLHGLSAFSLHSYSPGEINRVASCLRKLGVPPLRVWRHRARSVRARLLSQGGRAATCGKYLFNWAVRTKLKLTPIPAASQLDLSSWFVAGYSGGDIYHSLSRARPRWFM
The experiment in a line: Standard HCV NS5B RdRp enzyme assay. It is filed as biochemical. The settings on record: Table 1b; HCV NS5B RdRp genotype 1b; read-out: IC50. How it is done:
HCV NS5B RdRp cloning, expression, and purification. The cDNA encoding the NS5B protein of HCV, genotype 1b, was cloned into the pET21a expression vector. The protein was expressed with an 18 amino acid C-terminal truncation to enhance the solubility. The E. coli competent cell line BL21(DE3) was used for expression of the protein. Cultures were grown at 37° C. for ˜4 hours until the cultures reached an optical density of 2.0 at 600 nm. The cultures were cooled to 20° C. and induced with 1 mM IPTG. Fresh ampicillin was added to a final concentration of 50 μg/ml and the cells were grown overnight at 20° C.
Cell pellets (3 L) were lysed for purification to yield 15-24 mgs of purified NS5B. The lysis buffer consisted of 20 mM Tris-HCl, pH 7.4, 500 mM NaCl, 0.5% triton X-100, 1 mM DTT, 1 mM EDTA, 20% glycerol, 0.5 mg/ml lysozyme, 10 mM MgCl2, 15 ug/ml deoxyribonuclease I, and Complete TM protease inhibitor tablets (Roche). After addition of the lysis buffer, frozen cell pellets were resuspended using a tissue homogenizer. To reduce the viscosity of the sample, aliquots of the lysate were sonicated on ice using a microtip attached to a Branson sonicator. The sonicated lysate was centrifuged at 100,000×g for 1 hr at 4° C. and filtered through a 0.2 μm filter unit (Corning).
The protein was purified using three sequential chromatography steps: Heparin sepharose CL-6B, polyU sepharose 4B, and Hitrap SP sepharose (Pharmacia). The chromatography buffers were identical to the lysis buffer but contained no lysozyme, deoxyribonuclease I, MgC12 or protease inhibitor and the NaCl concentration of the buffer was adjusted according to the requirements for charging the protein onto the column. Each column was eluted with a NaCl gradient which varied in length from 5-50 column volumes depending on the column type. After the final chromatography step, the resulting purity of the enzyme is >90% based on SDS-PAGE analysis. The enzyme was aliquoted and stored at −80° C.
Standard HCV NS5B RdRp enzyme assay. HCV RdRp genotype 1b assays were run in a final volume of 60 μl in 96 well plates (Costar 3912). The assay buffer composed of 20 mM Hepes, pH 7.5, 2.5 mM KCl, 2.5 mM MgCl2, 1 mM DTT, 1.6 U RNAse inhibitor (Promega N2515), 0.1 mg/ml BSA (Promega R3961), and 2% glycerol. All compounds were serially diluted (3-fold) in DMSO and diluted further in water such that the final concentration of DMSO in the assay was 2%. HCV RdRp genotype 1b enzyme was used at a final concentration of 28 nM. A polyA template was used at 6 nM, and a biotinylated oligo-dT12 primer was used at 180 nM final concentration. Template was obtained commercially (Amersham 27-4110). Biotinylated primer was prepared by Sigma Genosys. 3H-UTP was used at 0.6 μCi (0.29 μM total UTP). Reactions were initiated by the addition of enzyme, incubated at 30° C. for 60 min, and stopped by adding 25 μl of 50 mM EDTA containing SPA beads (4 μg/μl, Amersham RPNQ 0007). Plates were read on a Packard Top Count NXT after >1 hr incubation at room temperature.
IC50 values for compounds were determined using seven different [I]. IC50 values were calculated from the inhibition using the formula y=A+((B−A)/(1+((C/x)^D))).
Usually IC50 stands for the concentration at which inhibition is half-maximal. Regarding `CCOC(=O)c1[nH]c(-c2cccc(-c3ccc4oc(-c5ccc(F)cc5)c(C(=O)NC)c4c3)c2)nc1C`, the IC50 was below 0.25 µM.

For `CNC(=O)c1c(-c2ccc(F)cc2)oc2cc(NS(C)(=O)=O)c(/C=C/C(=O)NC(C)(C)c3ccccc3)cc12`, the IC50 lay within 1 to 10 µM.

With `CNC(=O)c1c(-c2ccc(F)cc2)oc2cc(N(CCO)S(C)(=O)=O)c(/C=C/C(=O)NC(C)(C)c3ccccc3)cc12`, the IC50 was below 0.25 µM.

Regarding `CNC(=O)c1c(-c2ccc(F)cc2)oc2ccc(-c3ccc(-c4ccnc(C)c4)c(C(=O)NCC(C)C)c3)cc12`, the IC50 was below 0.25 µM.

For the compound `CNC(=O)c1c(-c2ccc(F)cc2)oc2ccc(-c3ccc(-c4cccc(N)c4)c(C(=O)NCC(C)C)c3)cc12`, the concentration for half-maximal inhibition (IC50) was below 0.25 µM.

`CNC(=O)c1c(-c2ccc(F)cc2)oc2ccc(-c3ccc(-c4cncnc4)c(C(=O)NCC(C)C)c3)cc12`: the IC50 is below 0.25 µM.

For `CNC(=O)c1c(-c2ccc(F)cc2)oc2ccc(-c3ccc(-c4c[nH]c(=O)[nH]c4=O)c(C(=O)NCC(C)C)c3)cc12`, the IC50 was below 0.25 µM.

`CNC(=O)c1c(-c2ccc(F)cc2)oc2ccc(-c3ccc(-c4cncc(OC)c4)c(C(=O)NCC(C)C)c3)cc12`: the IC50 was 0.25 to 1 µM.

On to `CNC(=O)c1c(-c2ccc(F)cc2)oc2ccc(-c3ccc(-c4cnc(N)nc4)c(C(=O)NCC(C)C)c3)cc12`, for which the IC50 is below 0.25 µM.

As for `CNC(=O)c1c(-c2ccc(F)cc2)oc2ccc(-c3ccc(-c4cncc(C)c4)c(C(=O)NCC(C)C)c3)cc12`, the IC50 fell in the range of 0.25 to 1 µM.

For `CNC(=O)c1c(-c2ccc(F)cc2)oc2ccc(-c3ccc(-c4ccsc4)c(C(=O)NCC(C)C)c3)cc12`, the concentration for half-maximal inhibition (IC50) was below 0.25 µM.
